Read-outs that look alike come from different tables or passages of the source.
Key:
[1] = target: BTK enzyme (recombinant full-length BTK, hBTK) (Homo sapiens (Human), UniProt Q06187); assay: BTK enzymatic activity LANCE TR-FRET assay; type: biochemical; conditions: 50 pM hBTK, 25 μM ATP, 2 μM biotin-A5-peptide; compound range 1 μM to 0.017 nM; read-out: BTK binding IC50
[2] = tested on: adenosine uptake into HeLa cells; assay: [3H]Adenosine uptake assay in HeLa cells; type: cell-based; conditions: compound range 10 μM to 0.032 nM
Method in brief: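 HeLa cells in HBSS + 5% FBS were preincubated 30 min at ambient temperature with compound (ten-point 1:3 series, 10 µM–[…] final), then given [3H]adenosine (added as a 500 nM solution) for 60 min. Cell-associated label was read by scintillating-plate proximity counting; IC50 from 4-parameter fit of cps versus log concentration.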

[3] = Homo sapiens, HeLa, [3H]adenosine accumulation in HeLa cells, read-out: ADU inhibition IC50
[4] = [3H]adenosine accumulation in HeLa cells, read-out: ADU inhibition IC50

Sequence of BTK enzyme (recombinant full-length BTK, hBTK) (Q06187 whole entry): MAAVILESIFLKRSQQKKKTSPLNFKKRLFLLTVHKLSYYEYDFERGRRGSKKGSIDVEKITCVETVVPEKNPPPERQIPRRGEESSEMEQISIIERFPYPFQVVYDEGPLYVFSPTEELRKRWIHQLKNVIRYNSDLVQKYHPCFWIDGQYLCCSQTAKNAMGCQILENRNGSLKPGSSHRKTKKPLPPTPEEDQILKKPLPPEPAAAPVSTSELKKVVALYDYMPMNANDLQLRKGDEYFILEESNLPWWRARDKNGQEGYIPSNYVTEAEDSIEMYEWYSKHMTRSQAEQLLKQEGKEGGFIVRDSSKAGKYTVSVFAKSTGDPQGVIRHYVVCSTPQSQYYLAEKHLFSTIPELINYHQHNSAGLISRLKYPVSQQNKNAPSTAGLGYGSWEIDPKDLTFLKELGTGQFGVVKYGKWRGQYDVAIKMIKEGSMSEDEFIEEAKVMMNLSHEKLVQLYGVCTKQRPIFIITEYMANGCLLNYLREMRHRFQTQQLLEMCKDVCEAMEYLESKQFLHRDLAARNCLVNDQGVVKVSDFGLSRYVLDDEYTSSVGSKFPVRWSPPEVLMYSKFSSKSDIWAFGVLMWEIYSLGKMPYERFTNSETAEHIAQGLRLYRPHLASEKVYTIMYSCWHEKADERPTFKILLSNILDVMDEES

IC50 [1] [nM]	IC50 [2, 3] [nM]	IC50 [2, 4] [nM]	SMILES	IC50 ([2]; Homo sapiens, HeLa, read-out: ADU inhibition IC50 (nM), [3H]adenosine accumulation in HeLa cells) [nM]
4.7	746	–	C[C@](O)(c1ccc(-c2nc([C@@H]3CC[C@H]4CCC(=O)N4C3)n3ccnc(N)c23)cc1)c1cccc(C2CCC2)c1 [Example 82, (6R,8aS)-6-(8-amino-1-{4-[(1S)-1-(3-cyclobutylphenyl)-1-hydroxyethyl]phenyl]imidazo[1,5-a]pyrazin-3-yl)hexahydroindolizin-3(2H)-one]	–
12.2	–	1660	Nc1ncc(Cl)n2c([C@@H]3CC[C@H]4CCC(=O)N4C3)nc(-c3ccc(C(O)c4cc(C(F)(F)F)ccc4F)cc3)c12 (stereo partly drawn) [Example 129, (6R,8aS)-6-[8-amino-5-chloro-1-(4-{[2-fluoro-5-(trifluoromethyl)phenyl] (hydroxy)methyl}phenyl)imidazo[1,5-a]pyrazin-3-yl]hexahydroindolizin-3(2H)-one]	–
1000	–	589	Nc1nccn2c([C@@H]3CC[C@H]4CCC(=O)N4C3)nc(-c3ccc(C(O)(c4cccc(C(F)(F)F)c4)C4CC4)cc3)c12 (stereo partly drawn) [Example 86, (6R,8aS)-6-[8-amino-1-(4-{cyclopropyl(hydroxy)[3-(trifluoromethyl)phenyl]methyl}phenyl)imidazo [1,5-a]pyrazin-3-yl]hexahydroindolizin-3(2H)-one]	–
5.8	7480	–	C[C@@](O)(c1cccc(C(F)(F)F)c1)c1ccc(-c2nc([C@@H]3CC[C@H]4CCC(=O)N4C3)n3ccnc(N)c23)c(CO)c1 [Example 21, (6R,8aS)-6-(8-amino-1-(4-((S)-1-hydroxy-1-(3-(trifluoromethyl)phenyl)ethyl)-2-(hydroxymethyl)phenyl)imidazo[1,5-a]pyrazin-3-yl)hexahydroindolizin-3(2H)-one]	–
0.22	888	–	CN1CC[C@@H]2CC[C@@H](c3nc(-c4ccc([C@@](C)(O)c5cccc(C(F)(F)F)c5)cc4)c4c(N)nccn34)CN2C1=O [Example 114, (4aS,7R)-7-[8-amino-1-(4-{(1R)-1-hydroxy-1-[3-(trifluoromethyl)phenyl]ethyl}phenyl)imidazo [1,5-a]pyrazin-3-yl]-2-methyloctahydro-1H-pyrido[1,2-c]pyrimidin-1-one]	–
939	530	–	Nc1nccn2c([C@@H]3CC[C@H]4CCC(=O)N4C3)nc(-c3ccc([C@](O)(CO)c4cccc(C(F)(F)F)c4)cc3)c12 [Example 107, (6R,8aS)-6-[8-amino-1-(4-{(1R)-1,2-dihydroxy-1-[3-(trifluoromethyl)phenyl]ethyl}phenyl)imidazo [1,5-a]pyrazin-3-yl]hexahydroindolizin-3(2H)-one]	–
42.2	–	418	CC1(C)C[C@@H]2CC[C@@H](c3nc(-c4ccc(C(C)(O)c5cccc(C(F)F)c5)cc4F)c4c(N)nccn34)CN2C1=O (stereo partly drawn) [Example 201, (6R,8aS)-6-[8-amino-1-(4-{1-[3-(difluoromethyl)phenyl]-1-hydroxyethyl}-2-fluorophenyl)imidazo[1,5-a]pyrazin-3-yl]-2,2-dimethylhexahydroindolizin-3(2H)-one]	–
30.4	1010	–	C[C@](O)(c1ccc(-c2nc([C@@H]3CC[C@H]4CCC(=O)N4C3)n3ccnc(N)c23)cc1)c1cccc(C(F)F)c1 [Example 70, (6R,8aS)-6-[8-amino-1-(4-{(1S)-1-[3-(difluoromethyl)phenyl]-1-hydroxyethyl}phenyl)imidazo[1,5-a]pyrazin-3-yl]hexahydroindolizin-3(2H)-one]	–
2.8	1310	–	Nc1nccn2c([C@@H]3CC[C@H]4CCC(=O)N4C3)nc(-c3ccc(C(O)(c4ccccc4)C(F)(F)F)cc3F)c12 (stereo partly drawn) [Example 30, (6R,8aS)-6-{8-amino-1-[2-fluoro-4-(2,2,2-trifluoro-1-hydroxy-1-phenylethyl)phenyl)imidazo[1,5-a]pyrazin-3-yl}hexahydroindolizin-3(2H)-one]	–
0.1	1830	–	CC1(C)CC(=O)N2C[C@H](c3nc(-c4ccc([C@@](C)(O)c5cccc(C(F)F)c5)cc4)c4c(N)nccn34)CC[C@H]21 [Example 177, (6R,8aS)-6-[8-amino-1-(4-{(1R)-1-[3-(difluoromethyl)phenyl]-1-hydroxyethyl}phenyl)imidazo[1,5-a]pyrazin-3-yl]-1,1-dimethylhexahydroindolizin-3(2H)-one]	–
808	1730	–	C[C@@](O)(c1cccc(C(F)(F)F)c1)c1ccc(-c2nc([C@@H]3CC[C@H]4CCC(=O)N4C3)n3ccnc(N)c23)c(C(F)F)c1 [Example 80, (6R,8aS)-6-{8-amino-1-[2-(difluoromethyl)-4-{(1S)-1-hydroxy-1-[3-(trifluoromethyl)phenyl]ethyl}phenyl]imidazo [1,5-a]pyrazin-3-yl}-hexahydroindolizin-3(2H)-one]	–
51.9	172	–	CN1CC[C@@H]2CC[C@@H](c3nc(-c4ccc([C@](C)(O)c5cccc(C(F)(F)F)c5)cc4)c4c(N)nccn34)CN2C1=O [Example 115, (4aS,7R)-7-[8-amino-1-(4-{(1S)-1-hydroxy-1-[3-(trifluoromethyl)phenyl]ethyl}phenyl)imidazo [1,5-a]pyrazin-3-yl]-2-methyloctahydro-1H-pyrido[1,2-c]pyrimidin-1-one]	–
876	865	–	C[C@](O)(c1ccc(-c2nc([C@@H]3CC[C@H]4CCC(=O)N4C3)n3ccnc(N)c23)cc1)c1cccc(C(F)(F)F)n1 [Example 137, (6R,8aS)-6-[8-amino-1-(4-{(1S)-1-hydroxy-1-[6-(trifluoromethyl)pyridin-2-yl]ethyl}phenyl)imidazo [1,5-a]pyrazin-3-yl]hexahydroindolizin-3(2H)-one]	–
5.9	569	–	C[C@](O)(c1ccc(-c2nc([C@@H]3CC[C@H]4CCC(=O)N4C3)n3ccnc(N)c23)cc1)c1cccc(C2CC2)c1 [Example 51, (6R,8aS)-6-(8-amino-1-{4-[(1S)-1-(3-cyclopropylphenyl)-1-hydroxyethyl]phenyl}imidazo[1,5-a]pyrazin-3-yl)hexahydroindolizin-3(2H)-one]	–
1000	–	535	Cc1cc(-c2nc([C@@H]3CC[C@H]4CCC(=O)N4C3)n3ccnc(N)c23)ccc1C(C)(O)c1cccc(C(F)(F)F)c1 (stereo partly drawn) [Example 43, (6R,8aS)-6-[8-amino-1-(4-{1-hydroxy-1-[3-(trifluoromethyl)phenyl]ethyl}-3-methylphenyl)imidazo [1,5-a]pyrazin-3-yl]hexahydroindolizin-3(2H)-one]	–
60.3	–	3650	CCOc1cc(C(C)(O)c2cccc(C)c2)ccc1-c1nc([C@@H]2CC[C@H]3CCC(=O)N3C2)n2ccnc(N)c12 (stereo partly drawn) [Example 168, (6R,8aS)-6-(8-amino-1-{2-ethoxy-4-[1-hydroxy-1-(3-methylphenyl)ethyl]phenyl}imidazo[1,5-a]pyrazin-3-yl)hexahydroindolizin-3(2H)-one]	–
1.7	873	–	CC(O)(c1ccc(-c2nc([C@@H]3CC[C@H]4CCC(=O)N4C3)n3ccnc(N)c23)cc1)c1cccc(C(F)(F)F)c1 (stereo partly drawn) [Example 13, (6R,8aS)-6-(8-amino-1-(4-(1-hydroxy-1-(3-(trifluoromethyl)phenyl)ethyl)phenyl)imidazo[1,5-a]pyrazin-3-yl)hexahydroindolizin-3(2H)-one]	–

SMILES	IC50 [1] [nM]	IC50 [2, 3] [nM]	IC50 [2, 4] [nM]	IC50 ([2]; Homo sapiens, HeLa, read-out: ADU inhibition IC50 (nM), [3H]adenosine accumulation in HeLa cells) [nM]
CC(F)(F)c1cccc([C@](C)(O)c2ccc(-c3nc([C@@H]4CC[C@H]5CCC(=O)N5C4)n4c(Cl)cnc(N)c34)cc2)c1 [Example 140]	0.22	–	–	1200

Reference: patent US10214546B2, “Btk inhibitors” (MERCK SHARP & DOHME CORP., priority 2014, dated 2019)
